# Literature values, collected in PubChem BioAssay AID1259409 (Chemical Carcinogenesis Research Information System (CCRIS), 2018).
# System: rodent chemically induced tumor inhibition, incidence and multiplicity
# Experiment: CCRIS tumor inhibitor studies
structure (smiles),measurement,setting,value
CC(=O)OC/C=C(C)/C=C/C=C(C)/C=C/C1=C(C)CCCC1(C)C,"tumour outcome (control, treated, inhibition, significance)","Carcinogen: 1,2-DIMETHYLHYDRAZINE, 540-73-8, Dose [Inhibitor]: 0.8 MMOL/KG DIET DAILY STARTING 12 D AFTER CARCINOGEN TREATMENT THROUGH ABOUT 8 MO AFTER CARCINOGEN DOSE (STUDY DURATION, Route [Inhibitor]: ORAL, Species: RAT, Strain/Sex: F344/MALE, Target Tissue: Type of Lesion: COLON: ADENOCARCINOMA, Dose [Carcinogen]: 150 MG/KG BW ONCE, Promoter: NONE USED","10/39 (26%), 7/30 (23%), 12%, not significant"
same,"tumour outcome (control, treated, inhibition, significance)","Carcinogen: 1,2-DIMETHYLHYDRAZINE, 540-73-8, Dose [Inhibitor]: 0.8 MMOL/KG DIET DAILY STARTING 12 D AFTER CARCINOGEN TREATMENT THROUGH ABOUT 8 MO AFTER CARCINOGEN DOSE (STUDY DURATION, Route [Inhibitor]: ORAL, Species: RAT, Strain/Sex: F344/MALE, Target Tissue: Type of Lesion: COLON: ADENOMA, Dose [Carcinogen]: 150 MG/KG BW ONCE, Promoter: NONE USED","23/39 (59%), 9/30 (30%), 49%, p<0.05"
same,"tumour outcome (control, treated, inhibition, significance)","Carcinogen: 7,12-DIMETHYLBENZ[A]ANTHRACENE, 57-97-6, Dose [Inhibitor]: 0, 328 MG/KG OF DIET FROM DAY 34 TO 54 OF AGE (STUDY DURATION: 200 D), Route [Inhibitor]: ORAL, Species: RAT, Strain/Sex: SPRAGUE-DAWLEY/FEMALE, Target Tissue: Type of Lesion: MAMMARY GLAND: ADENOCARCINOMA, Dose [Carcinogen]: 15 MG/RAT ONCE AT 55 D OF AGE, Promoter: NONE USED","93%, 97%, -4%, not calculated"
same,"tumour outcome (control, treated, inhibition, significance)","Carcinogen: 7,12-DIMETHYLBENZ[A]ANTHRACENE, 57-97-6, Dose [Inhibitor]: 0, 328 MG/KG OF DIET FROM DAY 34 TO 54 OF AGE (STUDY DURATION: 200 D), Route [Inhibitor]: ORAL, Species: RAT, Strain/Sex: SPRAGUE-DAWLEY/FEMALE, Target Tissue: Type of Lesion: MAMMARY GLAND: BENIGN TUMORS, Dose [Carcinogen]: 15 MG/RAT ONCE AT 55 D OF AGE, Promoter: NONE USED","28%, 40%, -43%, not calculated"
same,"tumour outcome (control, treated, inhibition, significance)","Carcinogen: 7,12-DIMETHYLBENZ[A]ANTHRACENE, 57-97-6, Dose [Inhibitor]: 0, 350 MG/KG 1/WK FROM 40-90 D OF AGE THEN 0, 250 MG/KG 1/WK FROM 90-180 D OF AGE AND 0, 200 MG/KG 1/WK FROM 180-240 D O, Dose [Inhibitor]: 0, 350 MG/KG 1/WK FROM 40-90 D OF AGE THEN 0, 250 MG/KG 1/WK FROM 90-180 D OF AGE AND 0, 200 MG/KG 1/WK FROM 180-240 D O, Route [Inhibitor]: INTRAPERITONEAL, Species: RAT, Strain/Sex: SPRAGUE DAWLEY/FEMALE, Target Tissue: Type of Lesion: MAMMARY GLAND: ADENOCARCINOMA, FIBROADENOMA, Dose [Carcinogen]: 5 MG IN 0.2 ML SESAME OIL 1/2 D FOR 12 D BEGINNING AT 50 D OF AGE, Promoter: NONE USED","100%, 48%, 52%, p<0.001"
same,"tumour outcome (control, treated, inhibition, significance)","Carcinogen: 7,12-DIMETHYLBENZ[A]ANTHRACENE, 57-97-6, Dose [Inhibitor]: 0.2 MILLIMOLAR IN DIET DAILY FOR 27 WK STARTING 3 D AFTER LAST CARCINOGEN DOSE AND CONTINUING THE END OF THE STUDY (STUD, Route [Inhibitor]: ORAL, Species: MOUSE, Strain/Sex: BDF/FEMALE, Target Tissue: Type of Lesion: MAMMARY GLAND: ADENOCARCINOMA, Dose [Carcinogen]: 1 MG/WK FOR 6 WK, Promoter: NONE USED","22/75 (29%), 31/75 (41%), -41%, not significant"
same,"tumour outcome (control, treated, inhibition, significance)","Carcinogen: 7,12-DIMETHYLBENZ[A]ANTHRACENE, 57-97-6, Dose [Inhibitor]: 0.2 MILLIMOLAR IN DIET DAILY FOR 27 WK STARTING 3 D AFTER LAST CARCINOGEN DOSE AND CONTINUING THROUGH THE END OF THE STU, Route [Inhibitor]: ORAL, Species: MOUSE, Strain/Sex: BDF/FEMALE, Target Tissue: Type of Lesion: MAMMARY GLAND: ADENOCANTHOMA, Dose [Carcinogen]: 1 MG/WK FOR 6 WK, Promoter: NONE USED","20/75 (27%), 19/75 (25%), 7%, not significant"
same,"tumour outcome (control, treated, inhibition, significance)","Carcinogen: 7,12-DIMETHYLBENZ[A]ANTHRACENE, 57-97-6, Dose [Inhibitor]: 68 MG/KG DIET DAILY FOR 11 WK STARTING 3 D AFTER CARCINOGEN TREATMENT (STUDY DURATION: 11 WK), Route [Inhibitor]: ORAL, Species: RAT, Strain/Sex: SPRAGUE-DAWLEY/FEMALE, Target Tissue: Type of Lesion: MAMMARY GLAND: CARCINOMA, Dose [Carcinogen]: 20 MG/ML SESAME OIL ONCE AT 53 D OF AGE, Promoter: NONE USED","100%, 92%, 8%, not significant"
same,"tumour outcome (control, treated, inhibition, significance)","Carcinogen: 7,12-DIMETHYLBENZ[A]ANTHRACENE, 57-97-6, Dose [Inhibitor]: 204 MG/KG DIET DAILY FOR 12 WK STARTING 3 D AFTER CARCINOGEN TREATMENT (STUDY DURATION: 12 WK), Route [Inhibitor]: ORAL, Species: RAT, Strain/Sex: SPRAGUE-DAWLEY/FEMALE, Target Tissue: Type of Lesion: MAMMARY GLAND: CARCINOMA, Dose [Carcinogen]: 10 MG/ML SESAME OIL ONCE AT 53 D OF AGE, Promoter: NONE USED","90%, 74%, 18%, not significant"
same,"tumour outcome (control, treated, inhibition, significance)","Carcinogen: 7,12-DIMETHYLBENZ[A]ANTHRACENE, 57-97-6, Dose [Inhibitor]: 250 MG/KG DIET DAILY FOR 28 WK STARTING 2 WK BEFORE START OF CARCINOGEN TREATMENT AND CONTINUING FOR DURATION OF STUDY (, Route [Inhibitor]: ORAL, Species: RAT, Strain/Sex: SPRAGUE-DAWLEY/FEMALE, Target Tissue: Type of Lesion: MAMMARY GLAND: TUMOR, Dose [Carcinogen]: 5 MG IN CORN OIL 1/WK FOR 3 WK, Promoter: NONE USED","90%, 47%, 48%, p<0.001"
same,"tumour outcome (control, treated, inhibition, significance)","Carcinogen: 7,12-DIMETHYLBENZ[A]ANTHRACENE, 57-97-6, Dose [Inhibitor]: 328 MG/KG DIET DAILY FOR 20 WK STARTING 3 D AFTER CARCINOGEN TREATMENT (STUDY DURATION: 26 WK), Route [Inhibitor]: ORAL, Species: RAT, Strain/Sex: SPRAGUE-DAWLEY/FEMALE, Target Tissue: Type of Lesion: MAMMARY GLAND: CARCINOMA, Dose [Carcinogen]: 5 MG/ML SESAME OIL ONCE AT 53 D OF AGE, Promoter: NONE USED","85%, 60%, 29%, not significant"
same,"tumour outcome (control, treated, inhibition, significance)","Carcinogen: DIMETHYLBENZ[A]ANTHRACENE, 57-97-6, Dose [Inhibitor]: 0, 328 MG/KG DIET IN VEHICLE 2 MO PRIOR TO CARCINOGEN DOSE AND CONTINUED UNTIL CARCINOGEN ADMINISTRATION (STUDY DURATION, Route [Inhibitor]: ORAL, Species: RAT, Strain/Sex: CD-1/FEMALE, Target Tissue: Type of Lesion: MAMMARY GLAND: ADENOCARCINOMA, Dose [Carcinogen]: 20 MG IN 1 ML SESAME OIL ONCE, Promoter: NONE USED","63%, 57%, 10%, not calculated"
same,"tumour outcome (control, treated, inhibition, significance)","Carcinogen: DIMETHYLBENZ[A]ANTHRACENE, 57-97-6, Dose [Inhibitor]: 0, 328 MG/KG DIET IN VEHICLE 2 MO PRIOR TO CARCINOGEN DOSE AND CONTINUED UNTIL CARCINOGEN ADMINISTRATION (STUDY DURATION, Route [Inhibitor]: ORAL, Species: RAT, Strain/Sex: CD-1/FEMALE, Target Tissue: Type of Lesion: MAMMARY GLAND: BENIGN TUMOR, Dose [Carcinogen]: 20 MG IN 1 ML SESAME OIL ONCE, Promoter: NONE USED","17%, 50%, -194%, p<0.05"
same,"tumour outcome (control, treated, inhibition, significance)","Carcinogen: ETHYLNITROSOUREA, 759-73-9, Dose [Inhibitor]: 0, 300000 IU KG IN 1:20 (VOLUME: VOLUME) SUNFLOWER OIL IN DIET 5 D/WK FOR LIFE (STUDY DURATION: 319 D), Route [Inhibitor]: ORAL, Species: RAT, Strain/Sex: ALBINO/MALE,FEMALE, Target Tissue: Type of Lesion: NERVOUS SYSTEM: SCHWANNOMA, Dose [Carcinogen]: 75 MG/KG IN SALINE BY INTRAVENOUS INJECTION ONCE 21 D AFTER CONCEPTION","37/89 (42%), 14/50 (28%), 33%, not calculated"
same,"tumour outcome (control, treated, inhibition, significance)","Carcinogen: ETHYLNITROSOUREA, 759-73-9, Dose [Inhibitor]: 0, 300000 IU/KG IN 1:20 (VOLUME: VOLUME) SUNFLOWER OIL IN DIET 5 D/WK FOR LIFE (STUDY DURATION: 319 D), Route [Inhibitor]: ORAL, Species: RAT, Strain/Sex: ALBINO/MALE,FEMALE, Target Tissue: Type of Lesion: BRAIN: GLIOMA OR ASTROCYTOMA, Dose [Carcinogen]: 75 MG/KG IN SALINE BY INTRAVENOUS INJECTION ONCE 21 D AFTER CONCEPTION","54/89 (61%), 38/50 (76%), -25%, not calculated"
same,"tumour outcome (control, treated, inhibition, significance)","Carcinogen: ETHYLNITROSOUREA, 759-73-9, Dose [Inhibitor]: 0, 300000 IU/KG IN 1:20 (VOLUME: VOLUME) SUNFLOWER OIL IN DIET 5 D/WK FOR LIFE (STUDY DURATION: 319 D), Route [Inhibitor]: ORAL, Species: RAT, Strain/Sex: ALBINO/MALE,FEMALE, Target Tissue: Type of Lesion: KIDNEY: MESENCHYMAL TUMOR OR ADENOCARCINOMA, Dose [Carcinogen]: 75 MG/KG IN SALINE BY INTRAVENOUS INJECTION ONCE 21 D AFTER CONCEPTION","33/89 (37%), 14/50 (28%), 24%, not calculated"
same,"tumour outcome (control, treated, inhibition, significance)","Carcinogen: ETHYLNITROSOUREA, 759-73-9, Dose [Inhibitor]: 0, 300000 IU/KG IN 1:20 (VOLUME: VOLUME) SUNFLOWER OIL IN DIET 5 D/WK FOR LIFE (STUDY DURATION: 319 D), Route [Inhibitor]: ORAL, Species: RAT, Strain/Sex: ALBINO/MALE,FEMALE, Target Tissue: Type of Lesion: SPINAL CORD: TUMOR, Dose [Carcinogen]: 75 MG/KG IN SALINE BY INTRAVENOUS INJECTION ONCE 21 D AFTER CONCEPTION","55/89 (62%), 26/50 (52%), 16%, not calculated"
same,"tumour outcome (control, treated, inhibition, significance)","Carcinogen: METHYLNITROSOUREA, 684-93-5, Dose [Inhibitor]: 0, 328 MG/KG DIET IN VEHICLE 2 MO PRIOR TO CARCINOGEN DOSE AND CONTINUED UNTIL CARCINOGEN ADMINISTRATION (STUDY DURATION, Route [Inhibitor]: ORAL, Species: RAT, Strain/Sex: CD-1/FEMALE, Target Tissue: Type of Lesion: MAMMARY GLAND: ADENOCARCINOMA, Dose [Carcinogen]: 50 MG/KG BW ONCE, Promoter: NONE USED","57%, 72%), -26%, not calculated"
same,"tumour outcome (control, treated, inhibition, significance)","Carcinogen: METHYLNITROSOUREA, 684-93-5, Dose [Inhibitor]: 0, 328 MG/KG DIET IN VEHICLE 2 MO PRIOR TO CARCINOGEN DOSE AND CONTINUED UNTIL CARCINOGEN ADMINISTRATION (STUDY DURATION, Route [Inhibitor]: ORAL, Species: RAT, Strain/Sex: CD-1/FEMALE, Target Tissue: Type of Lesion: MAMMARY GLAND: BENIGN TUMOR, Dose [Carcinogen]: 50 MG/KG BW ONCE, Promoter: NONE USED","10%, 21%, -110%, not calculated"
